Test results from US20210317102A1, “INHIBITORS OF INTEGRATED STRESS RESPONSE PATHWAY” (Praxis Biotech LLC, priority 2019, published 2021).

Legend:
[1] = system: ATF4 expression, HEK293T cells carrying the ATF4 luciferase reporter; assay: ATF4 expression inhibition assay (ATF4 luciferase reporter); assay type: cell-based; settings: Homo sapiens, HEK-293T, 100 nM thapsigargin, 3 hours
Description: The ATF4 reporter was prepared by fusing the human full length 5′UTR of ATF4 (NCBI Accession No. BC022088.2) upstream of the firefly luciferase coding sequence lacking the initiator methionine. The fused sequence was cloned into pLenti-EFla-C-Myc-DDK-IRES-Puro cloning vector (Origen #PS100085) using standard methods. Virus production was carried out by using Lenti-X™ Packaging Single Shots Protocol (Clonetech #631276). Viral particles were used to transduce HEK293T cells (ATCC #CRL-3216, ATCC Manassas, Va.), which were subsequently selected with puromycin to generate stable cell line. Cells were maintained at 37° C. and 5% CO2 in DMEM-F12 (Hyclone #SH30023.02) supplemented with 10% heat-inactivated fetal bovine serum (Gibco #16000-044), 2 mM L-glutamine (Gibco #25030-081), 100 U/ml penicillin, and 100 μg/ml streptomycin (Gibco #^15140-122).
HEK293T cells carrying the ATF4 luciferase reporter were plated on 96-well plates (Nunc) at 10,000 cells per well. Cells were treated two days after seeding with 100 nM thapsigargin (Tg) (Sigma-Aldrich #T9033) in the presence of different concentrations of selected compounds ranging from 1 nM to 10 μM. Cells without treatment or cells treated with Tg alone were used as controls. Assay plates containing cells were incubated for 3 hours at 37° C.
Luciferase reactions were performed using Luciferase Assay System (Promega #E1501) as specified by the manufacturer. Luminescence was read with an integration time of 1 s and a gain of 110 using a Cytation-5 multi-mode microplate reader (BioTek). Relative luminescence units were normalized to Tg treatment (0% inhibition) and untreated cells (100% inhibition) and the percentage of ATF4 inhibition was calculated.
Accordingly, inhibition of ATF4 expression as a result of the test compound indicates suppression of the ISR pathway.

[2] = system: Chinese hamster ovary (CHO) cells; assay: Protein synthesis assay (puromycin incorporation, western blot); assay type: cell-based; settings: 2 hours, media alone = 100%; for activity at 1 µM: Cricetulus griseus, unstressed CHO cells (without Tg), 1 μM test compound, read-out: % Protein synthesis relative to untreated (1 μM test compound); for % Recovery of protein synthesis (1 μM test compound): stressed CHO cells, 300 nM Tg plus 1 μM test compound, Tg alone = 0%
Description: Chinese hamster ovary (CHO) cells were maintained at 37° C. and 5% CO2 in Dulbecco's Modified Eagle's Media (DMEM) supplemented with 10% fetal bovine serum, 2 mM L-glutamine, 100 U/ml penicillin, and 100 μg/ml streptomycin. After reaching 80% of confluence, cells were detached and seeded on 6 well plates in complete media, allowed to recover overnight and treated for 2 hours with 1 μM of the test compound (to assess protein synthesis levels in unstressed condition), or for 2 hours with 300 nM Tg in the presence of 1 μM of the test compound (to assess the recovery of protein synthesis in a stressed condition). Cells with Tg alone were used as controls.
After the 2 hours treatments, media were replaced by adding 10 μg/ml puromycin (Sigma Aldrich #P8833) in complete media for 30 min. Media were removed and cells were lysed with SDS-PAGE lysis buffer. Lysates were transferred to 1.5 ml tubes and sonicated for 3 min and total protein amount were quantified using BCA Protein Assay Kit (Pierce). Equal amount of protein (30 μg) was loaded on SDS-PAGE gels. Proteins were transferred onto […] PVDF membranes (BioRad) and probed with primary antibodies diluted in Tris-buffered saline supplemented with 0.1% Tween 20 (Merck #S6996184 505) and 3% bovine serum albumin (Rockland #BSA-50).
Puromycin (12D10) (Merck #MABE343) and j-actin (Sigma Aldrich #A5441) antibodies were used as primary antibody. A HRP-conjugated secondary antibody (Rockland) was employed to detect immune-reactive bands using enhanced chemiluminescence (ECL Western Blotting Substrate, Pierce). Quantification of protein bands was done by densitometry using ImageJ software.
Percent increase of protein synthesis in unstressed cells (without Tg treatment) in the presence of media alone or certain test compounds is shown in Table 3. The percentage levels were normalized to the media alone condition, which correspond to 100% protein synthesis.
Percent recovery of protein synthesis in stressed cells (with Tg treatment) due to the test compounds at 1 μM is also shown in Table 3. The levels were normalized to the media alone and Tg alone conditions, which correspond to 100% and 0% respectively.

Row | SMILES | IC50 [1] [nM] | activity at 1 µM [2] [%] | % Recovery of protein synthesis (1 μM test compound) [2] [%]
1 | O=C(COc1ccc(Cl)c(F)c1)N[C@H]1CC[C@H](CNC(=O)c2cccc(Cl)c2)CC1 [Compound 22, trans-3-chloro-N-((4-(2-(4-chloro-3-fluorophenoxy)acetamido)cyclohexyl)methyl)benzamide] | 10.9 | 83.3 | 54.6
2 | O=C(COc1ccc(Cl)c(F)c1)N[C@H]1CC[C@H](CNC(=O)c2ccc(Cl)c(F)c2)CC1 [Compound 23, trans-4-chloro-N-((4-(2-(4-chloro-3-fluorophenoxy)acetamido)cyclohexyl)methyl)-3-fluorobenzamide] | 1.27 | 93 | 74.1
3 | O=C(COc1ccc(Cl)c(F)c1)N[C@H]1CC[C@H](CNC(=O)c2ccc3ccc(Cl)cc3n2)CC1 [Compound 24, trans-7-chloro-N-((4-(2-(4-chloro-3-fluorophenoxy)acetamido)cyclohexyl)methyl)quinoline-2-carboxamide] | > 1000 | 138 | 49.1
4 | O=C(N[C@H]1CC[C@H](CNC(=O)c2cc3cc(Cl)ccc3o2)CC1)c1ccc2cc(Cl)ccc2n1 [Compound 25, trans-6-chloro-N-(4-((5-chlorobenzofuran-2-carboxamido)methyl)cyclohexyl)quinoline-2-carboxamide] | 1.56 | 266 | 223.3
5 | O=C(NC[C@H]1CC[C@H](NC(=O)c2cc3cc(Cl)ccc3o2)CC1)c1cc2cc(Cl)ccc2o1 [Compound 26, trans-5-chloro-N-((4-(5-chlorobenzofuran-2-carboxamido)cyclohexyl)methyl)benzofuran-2-carboxamide] | 0.6 | 173 | 113.4
6 | O=C(NC[C@H]1CC[C@H](NCCOc2ccc(Cl)c(F)c2)CC1)c1cc2cc(Cl)ccc2o1 [Compound 27, trans-5-chloro-N-((4-((2-(4-chloro-3-fluorophenoxy)ethyl)amino)cyclohexyl)methyl)benzofuran-2-carboxamide] | < 1000 | 126 | 38.1
7 | O=C(NC[C@H]1CC[C@H](NC(=O)COc2ccc(Cl)c(F)c2)CC1)Nc1ccc(Cl)cc1 [Compound 28, trans-2-(4-chloro-3-fluorophenoxy)-N-(4-((3-(4-chlorophenyl)ureido)methyl)cyclohexyl)acetamide] | 3.1 | 68 | 28.6
8 | O=C(Cc1ccc(Cl)cc1)NC[C@H]1CC[C@H](NC(=O)COc2ccc(Cl)c(F)c2)CC1 [Compound 29, trans-2-(4-chloro-3-fluorophenoxy)-N-(4-((2-(4-chlorophenyl)acetamido)methyl)cyclohexyl)acetamide] | 12.5 | 70.9 | 1.3
9 | O=C(COc1cccc(Cl)c1)NC[C@H]1CC[C@H](NC(=O)COc2ccc(Cl)c(F)c2)CC1 [Compound 30, trans-2-(4-chloro-3-fluorophenoxy)-N-(4-((2-(3-chlorophenoxy)acetamido)methyl)cyclohexyl)acetamide] | < 1000 | 110 | 0.4
10 | CC(C)(C(=O)NC[C@H]1CC[C@H](NC(=O)COc2ccc(Cl)cc2)CC1)c1ccc(Cl)cc1 [Compound 31, trans-N-((4-(2-(4-chlorophenoxy)acetamido)cyclohexyl)methyl)-2-(4-chlorophenyl)-2-methylpropanamide] | < 1000 | 120 | 66.2
11 | CC(C)(C(=O)NC[C@H]1CC[C@H](NC(=O)COc2ccc(Cl)c(F)c2)CC1)c1ccc(Cl)cc1 [Compound 32, trans-N-((4-(2-(4-chloro-3-fluorophenoxy)acetamido)cyclohexyl)methyl)-2-(4-chlorophenyl)-2-methylpropanamide] | > 1000 | 162 | 69.7
12 | O=C(COc1ccc(Cl)cc1)N[C@H]1CC[C@H](CNC2CCc3cc(Cl)ccc3C2)CC1 (stereo partly drawn) [Compound 33, trans-N-(4-(((6-chloro-1,2,3,4-tetrahydronaphthalen-2-yl)amino)methyl)cyclohexyl)-2-(4-chlorophenoxy)acetamide] | > 1000 | 599 | –
13 | O=C(COc1ccc(Cl)cc1)N[C@H]1CC[C@H](NC(=O)C2COc3ccc(Cl)cc3N2)CC1 (stereo partly drawn) [Compound 34, trans-6-chloro-N-(4-(2-(4-chlorophenoxy)acetamido)cyclohexyl)-3,4-dihydro-2H-benzo[b][1,4]oxazine-3-carboxamide] | > 1000 | 137 | 105.2
14 | CN1CC(C(=O)N[C@H]2CC[C@H](NC(=O)COc3ccc(Cl)cc3)CC2)Oc2ccc(Cl)cc21 (stereo partly drawn) [Compound 83, trans-6-chloro-N-(4-(2-(4-chlorophenoxy)acetamido)cyclohexyl)-4-methyl-3,4-dihydro-2H-benzo[b][1,4]oxazine-2-carboxamide] | 19.3 | 148 | 98.4
15 | O=C(Cc1ccc(Cl)cc1)NC[C@H]1CC[C@H](NC(=O)COc2ccc(Cl)cc2)CC1 [Compound 84, trans-2-(4-chlorophenoxy)-N-(4-((2-(4-chlorophenyl)acetamido)methyl)cyclohexyl)acetamide] | 18.3 | 135 | 35.0
16 | CN1C[C@H](C(=O)N[C@H]2CC[C@H](NC(=O)COc3ccc(Cl)cc3)CC2)Oc2ccc(Cl)cc21 [Compound 85, trans-(R)-6-chloro-N-(4-(2-(4-chlorophenoxy)acetamido)cyclohexyl)-4-methyl-3,4-dihydro-2H-benzo[b][1,4]oxazine-2-carboxamide] | 44 | 124 | 31.6
17 | CN1C[C@@H](C(=O)N[C@H]2CC[C@H](NC(=O)COc3ccc(Cl)cc3)CC2)Oc2ccc(Cl)cc21 [Compound 86, trans-(S)-6-chloro-N-(4-(2-(4-chlorophenoxy)acetamido)cyclohexyl)-4-methyl-3,4-dihydro-2H-benzo[b][1,4]oxazine-2-carboxamide] | 12.3 | 125 | 108.1
18 | CCN1CC(C(=O)N[C@H]2CC[C@H](NC(=O)COc3ccc(Cl)cc3)CC2)Oc2ccc(Cl)cc21 (stereo partly drawn) [Compound 87, trans-6-chloro-N-(4-(2-(4-chlorophenoxy)acetamido)cyclohexyl)-4-ethyl-3,4-dihydro-2H-benzo[b][1,4]oxazine-2-carboxamide] | 90.2 | 147 | 71.8
19 | CCN1C[C@H](C(=O)N[C@H]2CC[C@H](NC(=O)COc3ccc(Cl)cc3)CC2)Oc2ccc(Cl)cc21 [Compound 88, trans-(R)-6-chloro-N-(4-(2-(4-chlorophenoxy)acetamido)cyclohexyl)-4-ethyl-3,4-dihydro-2H-benzo[b][1,4]oxazine-2-carboxamide] | > 1000 | 105 | 28.6
